Experimental data as given in publication PMC8699473, “An Easily Expandable Multi-Drug LC-MS Assay for the Simultaneous Quantification of 57 Oral Antitumor Drugs in Human Plasma” (Cancers, 2021).

Experiment: Short-term stability in spiked pooled human plasma (bench-top, 4 °C, 56 °C)

Row | Compound | Short-time stability (1h, 56°C) Accuracy [%] (validation standard 2xLLOV) | Short-time stability (24h, 4°C, without daylight) Accuracy [%] (validation standard 2xLLOV) | Short-time stability (24h, RT, with daylight) Accuracy [%] (validation standard 2xLLOV) | Short-time stability (24h, RT, without daylight) Accuracy [%] (validation standard 2xLLOV) | Short-time stability (1h, 56°C) Accuracy [%] (validation standard LLOV) | Short-time stability (24h, 4°C, without daylight) Accuracy [%] (validation standard LLOV) | Short-time stability (24h, RT, with daylight) Accuracy [%] (validation standard LLOV) | Short-time stability (24h, RT, without daylight) Accuracy [%] (validation standard LLOV) | Short-time stability (1h, 56°C) Accuracy [%] (validation standard MOV) | Short-time stability (24h, 4°C, without daylight) Accuracy [%] (validation standard MOV) | Short-time stability (24h, RT, with daylight) Accuracy [%] (validation standard MOV) | Short-time stability (24h, RT, without daylight) Accuracy [%] (validation standard MOV) | Short-time stability (1h, 56°C) Accuracy [%] (validation standard ULOV) | Short-time stability (24h, 4°C, without daylight) Accuracy [%] (validation standard ULOV) | Short-time stability (24h, RT, with daylight) Accuracy [%] (validation standard ULOV) | Short-time stability (24h, RT, without daylight) Accuracy [%] (validation standard ULOV)
1 | N#CC[C@H](C1CCCC1)n1cc(-c2ncnc3[nH]ccc23)cn1 [Ruxolitinib] | 63.9 | 97.6 | 101.6 | 102.0 | 63.3 | 102.2 | 100.4 | 105.0 | 60.9 | 100.3 | 100.6 | 102.2 | 53.0 | 95.9 | 102.3 | 101.3
2 | Cc1c(C(=O)Nc2ccc(N3C[C@@H](C)O[C@@H](C)C3)nc2)cccc1-c1ccc(OC(F)(F)F)cc1 [Sonidegib] | 47.0 | 99.1 | 95.7 | 91.1 | 38.1 | 96.4 | 96.2 | 86.1 | 44.9 | 98.4 | 92.2 | 94.7 | 40.1 | 96.7 | 92.9 | 91.4
3 | CNC(=O)c1cc(Oc2ccc(NC(=O)Nc3ccc(Cl)c(C(F)(F)F)c3)cc2)ccn1 [Sorafenib] | 38.6 | 97.0 | 85.6 | 81.9 | 28.2 | 96.0 | 83.4 | 72.1 | 38.4 | 98.2 | 89.2 | 91.9 | 34.6 | 92.5 | 91.0 | 89.2
4 | CCN(CC)CCNC(=O)c1c(C)[nH]c(/C=C2\C(=O)Nc3ccc(F)cc32)c1C [Sunitinib] | 54.5 | 105.9 | 79.8 | 83.9 | 65.8 | 111.2 | 93.0 | 98.2 | 44.2 | 101.2 | 83.0 | 86.7 | 40.6 | 106.4 | 93.1 | 93.8
5 | O=C1CCC(N2C(=O)c3ccccc3C2=O)C(=O)N1 (stereo not shown) [Thalidomide] | – | 64.9 | – | – | – | 69.3 | – | – | – | 60.7 | – | – | – | 55.2 | 1.7 | 1.7
